Measurements: patent US9725468B2, “C5-spiro iminothiazine dioxides as BACE inhibitors, compositions, and their use” (Merck Sharp & Dohme Corp., priority 2013, dated 2017)

Tests used:
[1] = biological target: T1, purified human autoBACE-2 (Homo sapiens, UniProt Q9Y5Z0); assay: BACE-2 Assay (BACE-HTRF assay); assay type: biochemical; details: Ki calculated from IC50 using the Cheng-Prusoff equation; QSY7-EISEVNLDAEFC-Eu-amide substrate 200 nM, pH 5.0; read-out: BACE2 Ki
T1 sequence (Q9Y5Z0 63-473 limits assumed): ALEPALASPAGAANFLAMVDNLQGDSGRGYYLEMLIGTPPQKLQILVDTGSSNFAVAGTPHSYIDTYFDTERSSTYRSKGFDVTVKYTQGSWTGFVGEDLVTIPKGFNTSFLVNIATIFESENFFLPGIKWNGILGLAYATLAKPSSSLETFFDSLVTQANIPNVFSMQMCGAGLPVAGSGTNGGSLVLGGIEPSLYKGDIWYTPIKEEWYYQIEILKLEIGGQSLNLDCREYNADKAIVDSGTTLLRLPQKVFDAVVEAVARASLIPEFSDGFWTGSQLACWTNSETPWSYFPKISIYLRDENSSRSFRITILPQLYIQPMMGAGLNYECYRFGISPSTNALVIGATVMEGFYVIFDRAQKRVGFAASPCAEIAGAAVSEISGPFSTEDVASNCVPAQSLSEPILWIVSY
Experimental: Inhibitor ICsos at purified human autoBACE-2 are determined in a time-resolved endpoint proteolysis assay that measures hydrolysis of the QSY7-EISEVNLDAEFC-Eu-amide FRET peptide substrate (BACE-HTRF assay). BACE-mediated hydrolysis of this peptide results in an increase in relative fluorescence (RFU) at 620 nm after excitation with 320 nm light. Inhibitor compounds, prepared at 3× the desired final concentration in 1×BACE assay buffer (20 mM sodium acetate pH 5.0, 10% glycerol, 0.1% Brij-35) supplemented with 7.5% DMSO are preincubated with an equal volume of autoBACE-2 enzyme diluted in 1×BACE assay buffer (final enzyme concentration 1 nM) in black 384-well NUNC plates for 30 minutes at 30° C. The assay is initiated by addition of an equal volume of the QSY7-EISEVNLDAEFC-Eu-amide substrate (200 nM final concentration, […]) prepared in 1×BACE assay buffer supplemented with 7.5% DMSO and incubated for 90 minutes at 30° C. DMSO is present at 5% final concentration in the assay. Following laser excitation of sample wells at 320 nm, the fluorescence signal at 620 nm is collected for 400 ms following a 50 μs delay on a RUBYstar HTRF plate reader (BMG Labtechnologies). Raw RFU data is normalized to maximum (1.0 nM BACE/DMSO) and minimum (no enzyme/DMSO) RFU values. IC50s are determined by nonlinear regression analysis (sigmoidal dose response, variable slope) of percent inhibition data with minimum and maximum values set to 0 and 100 percent respectively. Similar IC50s are obtained when using raw RFU data. The Ki values are calculated from the IC50 using the Cheng-Prusoff equation.

[2] = biological target: soluble human BACE1 catalytic domain (Homo sapiens, UniProt P56817); assay: BACE1 HTRF FRET Assay; assay type: biochemical; details: Ki calculated from IC50 using the Cheng-Prusoff equation; QSY7-APPswe-Eu substrate 200 nM, pH 5.0
Text: Na^+-Acetate pH 5.0; 1% Brij-35; Glycerol; Dimethyl Sulfoxide (DMSO); Recombinant human soluble BACE1 catalytic domain (>95% pure); APP Swedish mutant peptide substrate (QSY7-APP^swe-Eu): QSY7-EISEVNLDAEFC-Europium-amide.
A homogeneous time-resolved FRET assay can be used to determine IC50 values for inhibitors of the soluble human BACE1 catalytic domain. This assay monitors the increase of 620 nm fluorescence that resulted from BACE1 cleavage of an APPswedish APP^swe mutant peptide FRET substrate (QSY7-EISEVNLDAEFC-Europium-amide). This substrate contains an N-terminal QSY7 moiety that serves as a quencher of the C-terminal Europium fluorophore (620 nm Em). In the absence of enzyme activity, 620 nm fluorescence is low in the assay and increased linearly over 3 hours in the presence of uninhibited BACE1 enzyme. Inhibition of BACE1 cleavage of the QSY7-APP^swe-Eu substrate by inhibitors is manifested as a suppression of 620 nm fluorescence.
Varying concentrations of inhibitors at 3× the final desired concentration in a volume of 10 ul are preincubated with purified human BACE1 catalytic domain (3 nM in 10 μl) for 30 minutes at 30° C. in reaction buffer containing 20 mM Na-Acetate pH 5.0, 10% glycerol, 0.1% Brij-35 and 7.5% DSMO. Reactions are initiated by addition of 10 μl of 600 nM QSY7-APP^swe-Eu substrate (200 nM final) to give a final reaction volume of 30 μl in a 384 well Nunc HTRF plate. The reactions are incubated at 30° C. for 1.5 hours. The 620 nm fluorescence is then read on a Rubystar HTRF plate reader (BMG Labtechnologies) using a 50 millisecond delay followed by a 400 millisecond acquisition time window. Inhibitor IC50 values are derived from non-linear regression analysis of concentration response curves. Ki values are then calculated from IC50 values using the Cheng-Prusoff equation using a previously determined […] for the QSY7-APP^swe-Eu substrate at BACE1.

soluble human BACE1 catalytic domain, sequence (P56817 75-416 limits assumed): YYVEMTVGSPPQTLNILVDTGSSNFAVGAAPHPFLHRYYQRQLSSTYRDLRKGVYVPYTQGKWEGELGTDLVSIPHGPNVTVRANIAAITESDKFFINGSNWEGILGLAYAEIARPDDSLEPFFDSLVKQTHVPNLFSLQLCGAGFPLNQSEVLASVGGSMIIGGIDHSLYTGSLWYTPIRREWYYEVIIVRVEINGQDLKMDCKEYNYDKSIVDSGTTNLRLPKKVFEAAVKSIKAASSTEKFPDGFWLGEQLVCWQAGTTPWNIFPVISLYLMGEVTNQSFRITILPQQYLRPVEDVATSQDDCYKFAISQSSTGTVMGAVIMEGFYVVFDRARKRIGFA

Ki [1] [nM] | Ki [2] [nM] | SMILES
7 | 23 | CC1(C)C(=N)N[C@@]2(COCc3ccc(NC(=O)c4ccc(Cl)cn4)cc32)CS1(=O)=O [Example D-1]
512 | 644 | CC1(C)C(=N)N[C@@]2(COCc3ccc(NC(=O)c4ncc(C(F)(F)F)cn4)cc32)CS1(=O)=O [Example E-1]
200 | 1200 | CC1(C)C(=N)N[C@@]2(COCc3ccc(NC(=O)c4cc5ccccn5n4)cc32)CS1(=O)=O [Example E-2]
175 | 50 | CC1(C)C(=N)N[C@@]2(COCc3ccc(NC(=O)c4ccc(OC(F)(F)F)cn4)cc32)CS1(=O)=O [Example E-3]
72 | 20 | C#CCOc1cnc(C(=O)Nc2ccc3c(c2)[C@]2(COC3)CS(=O)(=O)C(C)(C)C(=N)N2)cn1 [Example E-4]
8 | 6 | Cc1cc(C#N)cnc1C(=O)Nc1ccc2c(c1)[C@]1(COC2)CS(=O)(=O)C(C)(C)C(=N)N1 [Example E-5]
155 | 41 | CC1(C)C(=N)N[C@@]2(COCc3ccc(NC(=O)c4ccc(C(F)(F)F)cn4)cc32)CS1(=O)=O [Example E-6]
2 | 12 | CC1(C)C(=N)N[C@@]2(COCc3ccc(NC(=O)c4ccn(C(F)F)n4)cc32)CS1(=O)=O [Example E-7]
12 | 281 | Cc1nc(C(=O)Nc2ccc3c(c2)[C@]2(COC3)CS(=O)(=O)C(C)(C)C(=N)N2)no1 [Example E-8]
23 | 171 | CC1(C)C(=N)N[C@@]2(COCc3ccc(NC(=O)c4cnsn4)cc32)CS1(=O)=O [Example E-9]
29 | 118 | COc1ccc(C(=O)Nc2ccc3c(c2)[C@]2(COC3)CS(=O)(=O)C(C)(C)C(=N)N2)nc1 [Example E-10]
5 | 59 | COc1cnc(C(=O)Nc2ccc3c(c2)[C@]2(COC3)CS(=O)(=O)C(C)(C)C(=N)N2)c(C)c1 [Example E-11]
2950 | 556 | CC1(C)C(=N)N[C@@]2(COCc3ccc(NC(=O)c4cn5cc(C#N)ccc5n4)cc32)CS1(=O)=O [Example E-12]

The remaining lines, values behind:

SMILES | Ki [1] [nM] | Ki [2] [nM]
CC1(C)C(=N)N[C@@]2(CCOc3ccc(NC(=O)c4ccc(Cl)cn4)cc32)CS1(=O)=O [Example B-1] | 2 | 8
COc1ccc(C(=O)Nc2ccc3c(c2)[C@]2(CCO3)CS(=O)(=O)C(C)(C)C(=N)N2)nc1 [Example B-2] | 28 | 58
COCC(=O)Nc1ccc2c(c1)[C@]1(CCO2)CS(=O)(=O)C(C)(C)C(=N)N1 [Example B-3] | 59 | 391
CC1(C)C(=N)N[C@@]2(CCOc3ccc(NC(=O)C(F)F)cc32)CS1(=O)=O [Example B-4] | 115 | 1280
CC1(C)C(=N)N[C@@]2(CCOc3ccc(NC(=O)c4ccn(C(F)F)n4)cc32)CS1(=O)=O [Example C-1] | 1 | 3
Cc1nc(C(=O)Nc2ccc3c(c2)[C@]2(CCO3)CS(=O)(=O)C(C)(C)C(=N)N2)co1 [Example C-2] | 3 | 18
C#CCOc1cnc(C(=O)Nc2ccc3c(c2)[C@]2(CCO3)CS(=O)(=O)C(C)(C)C(=N)N2)cn1 [Example C-3] | 14 | 3
CC1(C)C(=N)N[C@@]2(CCOc3ccc(NC(=O)c4cnsn4)cc32)CS1(=O)=O [Example C-4] | 5 | 3
CC1(C)C(=N)N[C@@]2(CCOc3ccc(NC(=O)c4cc5ccccn5n4)cc32)CS1(=O)=O [Example C-5] | 49 | 223
CC1(C)C(=N)N[C@@]2(CCOc3ccc(NC(=O)c4ccc(C(F)(F)F)cn4)cc32)CS1(=O)=O [Example C-6] | 50 | 10
Cc1nc(C(=O)Nc2ccc3c(c2)[C@]2(CCO3)CS(=O)(=O)C(C)(C)C(=N)N2)no1 [Example C-7] | 4 | 47
CC1(C)C(=N)N[C@@]2(CCOc3ccc(NC(=O)c4cn5cc(C#N)ccc5n4)cc32)CS1(=O)=O [Example C-8] | 157 | 121
CC1(C)C(=N)N[C@@]2(CCOc3ccc(NC(=O)c4ccc(F)cn4)cc32)CS1(=O)=O [Example C-9] | 5 | 33
CC1(C)C(=N)N[C@@]2(CCOc3ccc(NC(=O)c4ccc(OC(F)F)cn4)cc32)CS1(=O)=O [Example C-10] | 22 | 8
CC1(C)C(=N)N[C@@]2(CCOc3ccc(NC(=O)c4ccc(OC(F)(F)F)cn4)cc32)CS1(=O)=O [Example C-11] | 41 | 10
CC1(C)C(=N)N[C@@]2(CCOc3ccc(NC(=O)c4cnc(OCCF)cn4)cc32)CS1(=O)=O [Example C-12] | 98 | 45
CC1(C)C(=N)N[C@@]2(CCOc3ccc(NC(=O)c4ccc(OCF)cn4)cc32)CS1(=O)=O [Example C-13] | 8 | 14
Cc1cn(C)nc1C(=O)Nc1ccc2c(c1)[C@]1(CCO2)CS(=O)(=O)C(C)(C)C(=N)N1 [Example C-14] | 1 | 15
CC1(C)C(=N)N[C@@]2(CCOc3ccc(NC(=O)c4ccc(C#N)cn4)cc32)CS1(=O)=O [Example C-15] | 9 | 3
CC1(C)C(=N)N[C@@]2(CCOc3ccc(NC(=O)c4ncc(C(F)(F)F)cn4)cc32)CS1(=O)=O [Example C-16] | 98 | 107
CC1(C)C(=N)N[C@@]2(CCOc3ccc(NC(=O)c4ncc(Cl)cc4F)cc32)CS1(=O)=O [Example C-17] | 2 | 8
CC#CCOc1ccc(C(=O)Nc2ccc3c(c2)[C@]2(CCO3)CS(=O)(=O)C(C)(C)C(=N)N2)nc1 [Example C-18] | 45 | 3
C#CCOc1ccc(C(=O)Nc2ccc3c(c2)[C@]2(CCO3)CS(=O)(=O)C(C)(C)C(=N)N2)nc1 [Example C-19] | 48 | 7
COc1cnc(C(=O)Nc2ccc3c(c2)[C@]2(CCO3)CS(=O)(=O)C(C)(C)C(=N)N2)c(C)c1 [Example C-20] | 3 | 20
COc1cnc(C(=O)Nc2ccc3c(c2)[C@]2(CCO3)CS(=O)(=O)C(C)(C)C(=N)N2)c(C)n1 [Example C-21] | 20 | 40
Cc1cc(C#N)cnc1C(=O)Nc1ccc2c(c1)[C@]1(CCO2)CS(=O)(=O)C(C)(C)C(=N)N1 [Example C-22] | 3 | 2
COc1cnc(C(=O)Nc2ccc3c(c2)[C@]2(CCO3)CS(=O)(=O)C(C)(C)C(=N)N2)cn1 [Example C-23] | 46 | 52
CC1(C)C(=N)N[C@@]2(CCOc3ccc(NC(=O)c4cnc(C(F)(F)F)cn4)cc32)CS1(=O)=O [Example C-24] | 184 | 39
